“Also recorded” adds a separate entry of the source.
B1: DkTx: the bivalent toxin DkTx from tiger tarantula Ornithoctonus huwena (peptide, UniProt P0CH43 1-79, looked up)
Tau-theraphotoxin-Hs1a: DCAKEGEVCSWGKKCCDLDNFYCPMEFIPHCKKYKPYVPVTTNCAKEGEVCGWGSKCCHGLDCPLAFIPYCEKYRGRND
modifications: Tau-theraphotoxin-Hs1a
notes: the bivalent toxin DkTx from tiger tarantula Ornithoctonus huwena

Key:
rat TRPV1 [1] = target: T1, rat TRPV1 (Rattus norvegicus, UniProt O35433); assay type: cell-based
T1 construct: expressed in transfected cells; host or cells: CHO cells (T-Rex System, Invitrogen; tetracycline-induced)
Procedure: Recordings were made by a patch-clamp technique in whole-cell configuration using CHO cells stably expressing rat TRPV1. Whole-cell currents were recorded and digitized by Instru TECH LIH 8+8 data acquisition system (HEKA, Germany) at -80 mV holding voltage using EPC-8 (HEKA, Germany) amplifier, filtered at 5 kHz, sampled at 10kHz and stored. The external solution contained in mM: CaCl2 2.5, KCl 5, NaCl 143, D-glucose 18, HEPES 10, pH 7.35. Patch pipettes (2–5 MΩ resistance) were prepared by puller model P-97 (Sutter Instruments, USA). Pipette solution contained in mM: CsF 100, CsCl 40, NaCl 5, CaCl2 0.5, EGTA 5, HEPES 10, pH 7.2. Series resistance of about 20 MΩ was compensated by 70–80% and monitored during experiments. Drugs were applied using the ALA-VM8 (ALA Scientific Instruments, USA) perfusion system under computer control. All experiments were performed at 22°C.
(§1) All data were expressed as the mean ± standard deviation (SD). Significance of the effect was tested by ANOVA followed by Tukey’s post hoc analysis with the p-value of 0.05.
The cell line stably expressing rat TRPV1 was used for electrophysiological and internal Ca^2+ fluorescent recordings. […] In Fluo-4-based intracellular calcium assay experiments, capsaicin or 2APB were used as channel agonists. […] To take the response rundown in account, the peptide effects were measured relative to the average value of the preceding and subsequent control responses (see S2 Fig).
Fig 1 Action of APHCs on capsaicin-induced TRPV1 currents. […] G, Current–voltage relationship for TRPV1 currents induced by 3 and 0.3 μM capsaicin in control (black and red) and in the presence of 100 nM APHC1 (blue and magenta). […] I, Summary of the polypeptides action (100 nM) on TRPV1 responses activated by different concentrations of capsaicin, n = 9 for all series.

rat TRPV1 [2] = target: T1, rat TRPV1; assay type: cell-based; remark: listed apart in the source
Procedure: as §1

rat TRPV1 [3] = target: T1, rat TRPV1; settings: ref [8], [10], [11]; cited from earlier work
Excerpt: (§2) Since elaboration of TRPV1 pharmacology has obvious perspectives related to the potential treatment of pain and inflammation, many compounds affecting TRPV1 activation have been characterized. Some TRPV1 ligands have distinct effects on different modes of channel activation (heat, protons or chemical ligands).

human TRPV1 = settings: cited from earlier work
Excerpt: as §2

monkey TRPV1 = settings: ref [10], [11]; cited from earlier work
Excerpt: as §2

TRPV1 = test system: TRPV1; design: method as in PMID 17093448, PMID 20510930, PMID 26420335, PMID 24061123; settings: ref [20], [21], [22], [39]; cited from earlier work
mice = settings: ref [20], [21], [22]; cited from earlier work
Excerpt: Small lipophilic drugs can potentially reach their binding sites in different parts of a receptor, which complicates the study of mechanisms of action. Binding sites for membrane-impermeable peptide modulators should be localized at the outside surface of a channel protein. There are a few examples of polypeptides affecting TRPV1 channels.

T1 sequence (O35433 whole entry): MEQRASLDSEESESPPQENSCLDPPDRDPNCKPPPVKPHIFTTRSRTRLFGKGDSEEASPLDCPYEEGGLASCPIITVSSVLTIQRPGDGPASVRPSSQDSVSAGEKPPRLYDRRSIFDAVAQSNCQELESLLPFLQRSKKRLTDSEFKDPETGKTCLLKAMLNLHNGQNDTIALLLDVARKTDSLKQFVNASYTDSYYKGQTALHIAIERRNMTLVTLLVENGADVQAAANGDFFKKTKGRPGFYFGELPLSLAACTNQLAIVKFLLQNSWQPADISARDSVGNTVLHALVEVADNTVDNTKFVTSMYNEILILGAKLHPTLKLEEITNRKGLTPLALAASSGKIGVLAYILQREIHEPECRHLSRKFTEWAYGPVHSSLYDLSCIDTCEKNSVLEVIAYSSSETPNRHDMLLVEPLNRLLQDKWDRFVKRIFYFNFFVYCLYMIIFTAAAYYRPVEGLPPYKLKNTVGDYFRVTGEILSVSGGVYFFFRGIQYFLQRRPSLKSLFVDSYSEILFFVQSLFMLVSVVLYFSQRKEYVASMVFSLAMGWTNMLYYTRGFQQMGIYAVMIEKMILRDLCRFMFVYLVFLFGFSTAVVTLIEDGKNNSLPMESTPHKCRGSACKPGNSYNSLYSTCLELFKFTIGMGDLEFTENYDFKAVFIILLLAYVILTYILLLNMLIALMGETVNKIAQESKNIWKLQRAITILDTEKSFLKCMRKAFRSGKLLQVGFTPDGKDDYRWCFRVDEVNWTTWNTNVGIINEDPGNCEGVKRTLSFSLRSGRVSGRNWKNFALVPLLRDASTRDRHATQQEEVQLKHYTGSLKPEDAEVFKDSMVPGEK

Row | Molecule | reversal voltage of evoked currents (rat TRPV1 [1]) | effect on capsaicin response of rat TRPV1 (rat TRPV1 [3]) | effect on heat response of rat TRPV1 (rat TRPV1 [3]) | effect on proton response of rat TRPV1 (rat TRPV1 [3]) | other results
1 | NCCOB(c1ccccc1)c1ccccc1 [2APB, 2-aminoethoxydiphenyl borate] | close to zero | – | – | – | Ca2+ influx on agonist application (rat TRPV1 [2]): did not result in a detectable Ca^2+ influx
2 | Oc1cc2c(cc1O)CN(C(=S)NCCc1ccc(Cl)cc1)CCC2 [capsazepine] | – | heat and capsaicin responses are blocked at low capsazepine concentrations | heat and capsaicin responses are blocked at low capsazepine concentrations | ineffective as an antagonist of proton-induced response | block of capsaicin-evoked currents (rat TRPV1 [1]): reversibly blocked; also recorded: abolished; block of calcium responses to capsaicin (rat TRPV1 [2]): fully blocked; also recorded: abolished
3 | CC(C)(C)c1ccc(CNC(=S)NCc2ccc(NS(C)(=O)=O)c(F)c2)cc1 [JYL-1421] | – | blocks responses to capsaicin | – | not to heat or protons | action profile of rat TRPV1 (block of capsaicin, not heat or protons) on human TRPV1 (human TRPV1; ref [10], [11]): could not be shown; action profile of rat TRPV1 (block of capsaicin, not heat or protons) on monkey TRPV1 (monkey TRPV1): could not be shown
4 | COc1cc(CNC(=O)CCCC/C=C/C(C)C)ccc1O [capsaicin] | close to zero | – | – | – | –
5 | O=C(/C=C/c1ccc(C(F)(F)F)cc1N1CCCCC1)Nc1cccc2c1C[C@H](O)C2 [AMG8562, (R,E)-N-(2-hydroxy-2,3-dihydro-1H-inden-4-yl)-3-(2-(piperidin-1-yl)-4-(trifluoromethyl)phenyl)-acrylamide] | – | blocks capsaicin activation | does not affect heat activation | potentiates proton activation | effect on capsaicin activation of human TRPV1 (human TRPV1; ref [11]): blocks both heat and capsaicin activation; effect on heat activation of human TRPV1 (human TRPV1; ref [11]): blocks both heat and capsaicin activation; effect on proton activation of human TRPV1 (human TRPV1; ref [11]): partial antagonist of proton activation
6 | B1 | – | – | – | – | action on TRPV1 (TRPV1): Peptide agonists of TRPV1; effect when injected in mice (mice): cause pain behavior

Reference: article PMC5419573, “TRPV1 activation power can switch an action mode for its polypeptide ligands” (PLoS ONE, 2017)
